Test systems include A549; HCC 2998; HCT-116; HCT-15; HL-60; IGROV-1; KM12; LOX IMVI; NCI-H460; NCI-H522; OVCAR-3; OVCAR-4; OVCAR-5; SF-539; SK-OV-3; SN12C; SNB-75; U-251; UACC-257; UO-31.
Holding throughout (test): NCI-60 cell line screen, 48 h

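Cultured in 96-well plates, cells were exposed to test compound for 48 hours across five concentrations. The concentration for 50% growth inhibition is given as GI50.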 The source made the active and inactive calls. Rule as the data show it: active = GI50 up to about 1.1 µM and inactive = higher.

Take `C=C(C(=O)C(=O)Oc1ccc(Cl)cc1)C(=O)c1ccc(C)cc1`: the GI50 in the assay with A549 was 78 µM (inactive); with HCC 2998, 26.5 µM (inactive); in the assay with HCT-116, 16.7 µM (inactive); with HCT-15 it was 38.8 µM; in the assay with HL-60 it was 17.9 µM (inactive); with IGROV-1 it was > 100 µM (inactive). In addition, the GI50 is 21.5 µM (inactive) with KM12; < 0.01 µM (active) in the assay with LOX IMVI; 83 µM (inactive) with NCI-H460; 17.9 µM (inactive) in the assay with NCI-H522; 46.8 µM (inactive) in the assay on OVCAR-3; > 100 µM (inactive) in the assay with OVCAR-4. Further, the GI50 in the assay with OVCAR-5 was > 100 µM (inactive); in the assay with SF-539 it was 18.4 µM (inactive); in the assay with SK-OV-3 it was > 100 µM (inactive); in the assay with SN12C, 49.9 µM (inactive); in the assay on SNB-75, 39.2 µM (inactive); in the assay with U-251 it was 20.7 µM (inactive). For the same compound, the GI50 in the assay with UACC-257 is 71.8 µM (inactive); with UO-31, 40.2 µM (inactive).
Consider `COc1ccc2c(c1)CC1Cc3ccccc3CCN1C2` (stereo not given), for which the GI50 is 28.8 µM (inactive) in the assay with A549; 35.2 µM (inactive) in the assay on HCC 2998; 40.1 µM (inactive) in the assay on HCT-116; 61.2 µM in the assay with HCT-15; 53.1 µM (inactive) with HL-60; 38 µM (inactive) in the assay on IGROV-1. For the same compound, the GI50 in the assay with KM12 was 21.6 µM (inactive); in the assay with LOX IMVI, 20 µM (inactive); with NCI-H460 it was 38.9 µM (inactive); with NCI-H522 it was 15.3 µM (inactive); in the assay on OVCAR-3, 35.1 µM (inactive); with OVCAR-4, > 100 µM (inactive). For the same compound, the GI50 in the assay with OVCAR-5 was 22.6 µM (inactive); in the assay on SF-539, 31.1 µM (inactive); in the assay with SK-OV-3, 20.5 µM (inactive); in the assay on SN12C, > 100 µM (inactive); with SNB-75, > 100 µM (inactive); with U-251, 76 µM (inactive). The GI50 in the assay with UACC-257 was 52.8 µM (inactive); in the assay with UO-31 it was 37.2 µM (inactive).
With `NC1(C(=O)O)CCCC1` [CYCLOLEUCINE], the GI50 in the assay with A549 is > 625 µM (inactive); with HCC 2998, > 625 µM (inactive); in the assay with HCT-116, > 625 µM (inactive); with HCT-15, over 625 µM; in the assay on HL-60 it was > 625 µM (inactive); in the assay with IGROV-1, > 625 µM (inactive). The GI50 in the assay on KM12 is > 625 µM (inactive); with LOX IMVI, > 625 µM (inactive); with NCI-H460, > 625 µM (inactive); with NCI-H522, > 625 µM (inactive); with OVCAR-3 it was > 62.5 µM (inactive); in the assay with OVCAR-4 it was > 625 µM (inactive). For the same compound, the GI50 was > 625 µM (inactive) in the assay on OVCAR-5; > 625 µM (inactive) with SF-539; > 625 µM (inactive) in the assay with SK-OV-3; > 91 µM (inactive) in the assay on SN12C; > 625 µM (inactive) in the assay with SNB-75; > 625 µM (inactive) in the assay on U-251. Also, the GI50 in the assay on UACC-257 and in the assay with UO-31 was > 625 µM (inactive) in each case.

These data come from ChEMBL document CHEMBL1201862, “PubChem BioAssay data set” (2004).
